Reference: PubChem BioAssay (NCI)
Values after ≈ are worked out from the molar mass of the structure shown. Values joined by “and” are separate entries in the source; they are usually repeats but may differ in a detail not shown here. Identical values can stand only once.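 Cells were grown in 96-well plates and exposed to each compound for 48 hours at five concentrations; endpoints were interpolated linearly between bracketing concentrations, or set to the highest concentration if not reached. Here, GI50 denotes the concentration required for 50% inhibition of growth. At the TGI there is no net growth.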 Where a SMILES comes first, the peptide text is derived from it. [ ]: non-standard residue; d: D form. The star is where a group is joined. hSer = N[CH](CCO)C(=O)O; Boc = CC(C)(C)OC(=O)*; Bn = c1ccc(C*)cc1

Legend:
Experiment in all cases: NCI anticancer screen, dose series, 48 h
[1] = tested on: MDA-MB-435
[2] = tested on: SW-620 colon
[3] = tested on: COLO 205 colon
[4] = tested on: UO-31 renal
[5] = tested on: M14 melanoma
[6] = tested on: CAKI-1 renal
[7] = tested on: NCI-H522 lung
[8] = tested on: SF-268 CNS
[9] = tested on: KM12 colon
[10] = tested on: SK-MEL-2 melanoma
[11] = tested on: NCI-H23 lung
[12] = tested on: SK-OV-3 ovarian
[13] = tested on: HOP-92 NSCLC
[14] = tested on: OVCAR-5 ovarian
[15] = tested on: SN12C renal
[16] = tested on: MDA-MB-231 breast
[17] = tested on: HS 578T breast
[18] = tested on: HOP-62 NSCLC
[19] = tested on: MCF7 breast
[20] = tested on: NCI-H460 lung
[21] = tested on: SK-MEL-28 melanoma
[22] = tested on: ACHN renal
[23] = tested on: SF-295 CNS
[24] = tested on: A549 NSCLC
[25] = tested on: SNB-75 CNS
[26] = tested on: HCT-15 colon
[27] = tested on: OVCAR-4 ovarian
[28] = tested on: IGROV1 ovarian
[29] = tested on: SNB-19 CNS
[30] = tested on: UACC-257 melanoma
[31] = tested on: OVCAR-8 ovarian
[32] = tested on: SK-MEL-5 melanoma
[33] = tested on: DU-145 prostate
[34] = tested on: OVCAR-3 ovarian
[35] = tested on: NCI/ADR-RES ovarian
[36] = tested on: HT29 colon
[37] = tested on: UACC-62 melanoma
[38] = tested on: TK-10 renal
[39] = tested on: 786-0 renal
[40] = tested on: SF-539 CNS
[41] = tested on: LOX IMVI melanoma
[42] = tested on: MALME-3M melanoma
[43] = tested on: EKVX NSCLC
[44] = tested on: RXF 393 renal
[45] = tested on: U251 CNS
[46] = tested on: NCI-H226 lung
[47] = tested on: T-47D breast
[48] = tested on: HL-60(TB) leukemia
[49] = tested on: CCRF-CEM leukemia

In the case of `CCCCCCCCCCCCCCCCNCCC[C@@H](C)[C@H]1CC[C@H]2[C@@H]3[C@H](OCCCN)C[C@@H]4C[C@H](OCCCN)CC[C@]4(C)[C@H]3C[C@H](OCCCN)[C@]12C`, the GI50 [1] is reported as 2.28 µM, the TGI [1] is reported as 6.57 µM and the GI50 [2] is reported as 2.18 µM. It also gave a TGI [2] of 4.94 µM, a GI50 [3] of 2.52 µM and a TGI [3] of 5.13 µM. The GI50 [4] was 2.53 µM, the TGI [4] was 5.21 µM and the GI50 [5] was 2.5 µM. For the same compound, the TGI [5] was 5.65 µM, the GI50 [6] was 1.9 µM and the TGI [6] was 4.58 µM. For the same compound, the GI50 [7] was 2.25 µM, the TGI [7] was 5.36 µM and the GI50 [8] was 2.17 µM. The TGI [8] was 4.95 µM, the GI50 [9] was 2.18 µM and the TGI [9] was 5.03 µM. For the same compound, the GI50 [10] was 2.48 µM, the TGI [10] was 5.35 µM and the GI50 [11] was 2.39 µM. It also gave a TGI [11] of 5.4 µM.
`CC(C)CC(NC(=O)OC(C)(C)C)C(=O)NC(CCOCc1ccccc1)C(N)=O` (stereo not drawn) (Boc-Leu-[hSer](Bn)-NH2; configuration not given here) showed a GI50 [12] of 46.1 µg/mL (≈ 109 µM), a GI50 [13] of 21.4 µg/mL (≈ 50.9 µM) and a TGI [13] of 57.4 µg/mL (≈ 136 µM).
`CC(C)C(=O)/C=C/S/C=C/C(=O)C(C)C` was tested, and the TGI [1] was 30.1 µM, the TGI [14] was 22.1 µM and the TGI [15] was 29.6 µM. For the same compound, the TGI [16] was 15.9 µM, the TGI [17] was 95.7 µM and the TGI [2] was 17 µM. For the same compound, the TGI [3] was 8.16 µM, the TGI [18] was 86.9 µM and the TGI [19] was greater than 100 µM. The TGI [20] was greater than 100 µM, the TGI [21] was 21.1 µM and the TGI [4] was 62.7 µM. The TGI [12] was greater than 100 µM, the TGI [22] was 5.27 µM and the TGI [23] was greater than 100 µM. For the same compound, the TGI [24] was greater than 100 µM, the TGI [5] was 20.2 µM and the TGI [6] was 10.7 µM. It also gave a TGI [25] greater than 100 µM, a TGI [26] of 12.2 µM and a TGI [27] greater than 100 µM. It also gave a TGI [7] of 3.62 µM, a TGI [28] of 45.8 µM and a TGI [29] greater than 100 µM. The TGI [30] was 6.5 µM, the TGI [31] was 6.48 µM and the TGI [8] was greater than 100 µM. The TGI [32] was 21.7 µM, the TGI [9] was 92.1 µM and the TGI [33] was 29.4 µM. It also gave a TGI [34] of 14.9 µM, a TGI [35] of 9.63 µM and a TGI [36] greater than 100 µM. It also gave a TGI [37] of 27.9 µM, a TGI [10] greater than 100 µM and a TGI [38] greater than 100 µM. For the same compound, the TGI [39] was 6.52 µM, the TGI [40] was 60.2 µM and the TGI [11] was 7.57 µM. For the same compound, the TGI [41] was 11.1 µM, the TGI [42] was 25.6 µM and the TGI [43] was 90.9 µM. For the same compound, the TGI [44] was 19.4 µM, the TGI [45] was 70.6 µM and the TGI [46] was 29.2 µM. The TGI [47] was 65.7 µM.
With `Oc1c(Cl)c(Cl)c(Cl)c(Cl)c1Cl` (tested in a mixture with another compound) the TGI [48] was 39 µM and 10 µM, the TGI [49] was 62.3 µM and the TGI [46] was 41.7 µM.
